Assay [1] deals with JAK1-dependent STAT6 phosphorylation downstream of IL-13 stimulation in BEAS-2B human bronchial epithelial cells. The assay is described as follows: JAK1 pathway assay in BEAS-2B cells (IL-13-pSTAT6, MSD). It counts as cell-based. To be noted: Homo sapiens, BEAS-2B.
For assay [2], the target named is isolated recombinant JAK2 kinase domain (Homo sapiens (Human), UniProt O60674). The assay is described as follows: JAK2 enzyme assay (Caliper LabChip, Ki). It counts as biochemical. A digest of the protocol:
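Caliper LabChip readout of phosphorylated product as a fraction of total substrate, a fluorescently N-terminally labelled JAK3-derived peptide. Isolated human JAK kinase domains were incubated 30 min at 22 °C before EDTA quench (50 mM final).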

Assay [3] has as its target isolated recombinant JAK1 kinase domain (Homo sapiens (Human), UniProt P23458). Description: JAK1 enzyme assay (Caliper LabChip, Ki). It counts as biochemical. A digest of the protocol: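 Ki derived via Morrison tight-binding model, ATP-competitive correction applied. Read-out: product/total ratio of a 5-carboxyfluorescein-tagged JAK3 peptide separated on Caliper LabChip after phosphorylation by isolated human JAK1 kinase domain (22 °C, 30 min; EDTA quench, 50 mM final).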

The mark [4] stands for this setting: BEAS-2B cells, IL-13 stimulation, read-out: IL-13 p-STAT6 BEAS-2B IC50.

Where two headings read alike, the source gives them in different places.

Drawing on patent publication US11731943B2, “Therapeutic compounds, compositions and methods of use thereof” (priority 2016, dated 2023), this text covers IC50 and Ki for 22 compounds.

Chain of isolated recombinant JAK2 kinase domain (O60674 849-1124): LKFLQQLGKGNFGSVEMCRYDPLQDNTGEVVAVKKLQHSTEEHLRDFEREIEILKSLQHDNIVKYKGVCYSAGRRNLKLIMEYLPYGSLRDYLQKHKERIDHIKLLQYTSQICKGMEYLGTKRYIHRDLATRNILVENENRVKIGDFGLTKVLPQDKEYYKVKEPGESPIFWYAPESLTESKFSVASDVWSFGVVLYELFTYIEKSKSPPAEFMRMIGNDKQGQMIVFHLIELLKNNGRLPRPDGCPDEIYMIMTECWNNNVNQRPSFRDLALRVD
Chain of isolated recombinant JAK1 kinase domain (P23458 875-1153): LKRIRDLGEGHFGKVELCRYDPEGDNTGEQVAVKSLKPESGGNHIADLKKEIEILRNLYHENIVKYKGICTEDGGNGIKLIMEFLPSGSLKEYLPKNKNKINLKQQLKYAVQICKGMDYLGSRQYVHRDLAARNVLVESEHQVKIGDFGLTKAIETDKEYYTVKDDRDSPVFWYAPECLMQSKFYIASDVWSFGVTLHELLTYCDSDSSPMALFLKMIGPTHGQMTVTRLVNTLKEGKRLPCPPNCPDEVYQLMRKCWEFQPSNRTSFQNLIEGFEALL

For orientation: IC50 means the concentration at which inhibition is half-maximal. Broadly, the Ki is the equilibrium dissociation constant of an inhibitor or competing ligand from its target. As for `N#CC[C@]1(n2cc(C(N)=O)c(NC(=O)C3CC3)n2)CC[C@@H](N2CC(F)C2)CC1` [Example 180, 1-[1-(cyanomethyl)-4-(3-fluoroazetidin-1-yl)cyclohexyl]-3-(cyclopropanecarbonylamino) pyrazole-4-carboxamide], the IC50 in assay [1] (read-out: IL-13 p-STAT6 BEAS-2B IC50, BEAS-2B cells, IL-13 stimulation) was determined as 168 nM. Further, the Ki in assay [2] stood at 17.3 nM; in assay [3], 5.5 nM.
Turning to `CC(OC(=O)N1CCC(CC#N)(n2cc(C(N)=O)c(NC(=O)C3CC3)n2)CC1)C1CC1` (stereo not drawn) [Example 182, 1-cyclopropylethyl 4-[4-carbamoyl-3-(cyclopropanecarbonylamino)pyrazol-1-yl]-4-(cyanomethyl)piperidine-1-carboxylate], the 50% inhibitory concentration (IC50) in assay [1] (setting [4]) was found to be 675 nM. For the same compound, the Ki amounted to 50.7 nM in assay [2] and 4.7 nM in assay [3] (read-out: JAK1 Ki).
In the case of `N#CCC1(n2cc(C(N)=O)c(NC(=O)C3CC3)n2)CCN(Cc2ccccc2F)CC1` [Example 184, 1-[4-(cyanomethyl)-1-[(2-fluorophenyl)methyl]-4-piperidyl]-3-(cyclopropanecarbonylamino) pyrazole-4-carboxamide], the IC50 in assay [1] (setting [4]) was found to be 177 nM. Moreover, the Ki in assay [2] is 160 nM; in assay [3] (read-out: JAK1 Ki) it was 90.4 nM.
The matching figures for `COC(=O)Nc1nn(C2(CC#N)CCN(Cc3ccc(-c4ccccc4)c(O)c3)CC2)cc1C(N)=O` [Example 186, Methyl (4-carbamoyl-1-(4-(cyanomethyl)-1-((2-hydroxy-[1,1′-biphenyl]-4-yl) Methyl)piperidin-4-yl)-1H-pyrazol-3-yl)carbamate]: 68 nM, 1 nM and 0.24 nM.
As for `CCOC(=O)Nc1nn(C2(CC#N)CCN(Cc3ccc(-c4ccccc4)c(O)c3)CC2)cc1C(N)=O` [Example 187, ethyl N-[4-carbamoyl-1-[4-(cyanomethyl)-1-[(3-hydroxy-4-phenyl-phenyl)methyl]-4-piperidyl]pyrazol-3-yl]carbamate], the IC50 in assay [1] (setting [4]) is 74 nM. Further, the Ki is 3.1 nM in assay [2] and 0.52 nM in assay [3] (read-out: JAK1 Ki).
For `N#CCC1(n2cc(C(N)=O)c(NC(=O)C3CC3)n2)CCN(Cc2ccc(-c3ccccc3)nc2F)CC1` [Example 188, 1-[4-(cyanomethyl)-1-[(2-fluoro-6-phenyl-3-pyridyl)methyl]-4-piperidyl]-3-(cyclopropanecarbonylamino) pyrazole-4-carboxamide], the IC50 in assay [1] (setting [4]) amounted to 34 nM. For the same compound, the Ki in assay [2] amounted to 1.4 nM; in assay [3] (read-out: JAK1 Ki), 0.6 nM.
With `CCc1ccc(-c2ccc(CN3CCC(CC#N)(n4cc(C(N)=O)c(NC(=O)C5CC5)n4)CC3)cc2O)cc1` [Example 189, 1-[4-(cyanomethyl)-1-[[4-(4-ethylphenyl)-3-hydroxy-phenyl]methyl]-4-piperidyl]-3-(cyclopropanecarbonylamino) pyrazole-4-carboxamide], the IC50 in assay [1] (setting [4]) turned out to be 38 nM. Also, the Ki is 1.3 nM in assay [2] and 0.33 nM in assay [3] (read-out: JAK1 Ki).
The like results for `N#CCC1(n2cc(C(N)=O)c(NC(=O)C3CC3)n2)CCN(Cc2ccc(-c3ccn(CC(F)(F)F)n3)c(F)c2)CC1` [Example 190, 1-[4-(cyanomethyl)-1-[[3-fluoro-4-[1-(2,2,2-trifluoroethyl)pyrazol-3-yl]phenyl]methyl]-4-piperidyl]-3-(cyclopropanecarbonylamino) pyrazole-4-carboxamide] were, in that order, 93 nM, 11 nM and 1.1 nM.
Consider `N#CCC1(n2cc(C(N)=O)c(NC(=O)C3CC3)n2)CCN(Cc2cc(O)c(-c3ccccc3)cc2F)CC1` [Example 191, 1-[4-(cyanomethyl)-1-[(2-fluoro-5-hydroxy-4-phenyl-phenyl)methyl]-4-piperidyl]-3-(cyclopropanecarbonylamino) pyrazole-4-carboxamide], for which the IC50 in assay [1] (setting [4]) was found to be 82 nM. The Ki is 0.32 nM in assay [2] and 0.2 nM in assay [3] (read-out: JAK1 Ki).
Consider `N#CCC1(n2cc(C(N)=O)c(NC(=O)C3CC3C#N)n2)CCN(Cc2ccc(-c3ccccc3)cc2)CC1F` (stereo not drawn) [Example 192, 3-[(2-cyanocyclopropanecarbonyl)amino]-1-[4-(cyanomethyl)-3-fluoro-1-[(4-phenylphenyl)methyl]-4-piperidyl]pyrazole-4-carboxamide], for which the IC50 in assay [1] (setting [4]) was determined as 28 nM. In addition, the Ki in assay [2] turned out to be 1.2 nM; in assay [3] (read-out: JAK1 Ki), 0.35 nM.
In the case of `N#CCC1(n2cc(C(N)=O)c(NC(=O)C3CC3)n2)CCN(Cc2ccc(-c3ccccc3)nc2)CC1F` (stereo not drawn) [Example 193, 1-[4-(cyanomethyl)-3-fluoro-1-[(6-phenyl-3-pyridyl)methyl]-4-piperidyl]-3-(cyclopropanecarbonylamino) pyrazole-4-carboxamide], in assay [1] (setting [4]), the IC50 was determined as 48 nM. Further, the values for the Ki in assay [2] and in assay [3] (read-out: JAK1 Ki) were 0.26 nM and 0.33 nM, respectively.
The matching figures for `Cc1c(CN2CCC(CC#N)(n3cc(C(N)=O)c(NC(=O)C4CC4)n3)CC2)ccc(-c2ccccc2)c1O` [Example 194, 1-[4-(cyanomethyl)-1-[(3-hydroxy-2-methyl-4-phenyl-phenyl)methyl]-4-piperidyl]-3-(cyclopropanecarbonylamino) pyrazole-4-carboxamide]: 50 nM, 2.2 nM and 0.63 nM.
For the compound `COC(=O)Nc1nn(C2(CC#N)CCN(Cc3ccc(-c4ccccc4)c(O)c3)CC2F)cc1C(N)=O` (stereo not drawn) [Example 195, methyl N-[4-carbamoyl-1-[4-(cyanomethyl)-3-fluoro-1-[(3-hydroxy-4-phenyl-phenyl)methyl]-4-piperidyl]pyrazol-3-yl]carbamate], the IC50 in assay [1] (setting [4]) was 15 nM. Besides, the Ki in assay [2] is 0.15 nM; in assay [3] (read-out: JAK1 Ki), 0.11 nM.
As for `COC(=O)Nc1nn(C2(CC#N)CCN(Cc3ccc(-c4ccccc4)nc3)CC2F)cc1C(N)=O` (stereo not drawn) [Example 196, methyl N-[4-carbamoyl-1-[4-(cyanomethyl)-3-fluoro-1-[(6-phenyl-3-pyridyl)methyl]-4-piperidyl]pyrazol-3-yl]carbamate], in assay [1] (setting [4]), the IC50 is 30 nM. Moreover, the Ki in assay [2] was 0.27 nM; in assay [3] (read-out: JAK1 Ki), 0.26 nM.
With `COC(=O)Nc1nn(C2(CC#N)CCN(Cc3ccc(-n4nccn4)cc3)CC2)cc1C(N)=O` [Example 197, methyl N-[4-carbamoyl-1-[4-(cyanomethyl)-1-[[4-(triazol-2-yl)phenyl]methyl]-4-piperidyl]pyrazol-3-yl]carbamate], the IC50 in assay [1] (setting [4]) stood at 65 nM. For the same compound, the Ki in assay [2] is 22 nM; in assay [3] (read-out: JAK1 Ki), 1.2 nM.
Regarding `COC(=O)Nc1nn(C2(CC#N)CCN(Cc3ccc(-c4ccccc4)nc3F)CC2)cc1C(N)=O` [Example 198, methyl N-[4-carbamoyl-1-[4-(cyanomethyl)-1-[(2-fluoro-6-phenyl-3-pyridyl)methyl]-4-piperidyl]pyrazol-3-yl]carbamate], in assay [1] (setting [4]), the IC50 came out at 74 nM. Besides, the Ki in assay [2] was 3.8 nM; in assay [3] (read-out: JAK1 Ki), 1.2 nM.
Regarding `N#CCC1(n2cc(C(N)=O)c(NC(=O)C3CC3)n2)CCN(Cc2ccc(-n3nccn3)cc2)CC1F` (stereo not drawn) [Example 199, 1-[4-(cyanomethyl)-3-fluoro-1-[[4-(triazol-2-yl)phenyl]methyl]-4-piperidyl]-3-(cyclopropanecarbonylamino) pyrazole-4-carboxamide], in assay [1] (setting [4]), the IC50 worked out at 64 nM. Moreover, the Ki was 0.55 nM in assay [2] and 0.52 nM in assay [3] (read-out: JAK1 Ki).
With `COC(=O)Nc1nn(C2(CC#N)CCN(Cc3ccc(-n4nccn4)cc3)CC2F)cc1C(N)=O` (stereo not drawn) [Example 200, methyl N-[4-carbamoyl-1-[4-(cyanomethyl)-3-fluoro-1-[[4-(triazol-2-yl)phenyl]methyl]-4-piperidyl]pyrazol-3-yl]carbamate], the IC50 in assay [1] (setting [4]) amounted to 39 nM. The inhibition constant (Ki) in assay [2] is 0.96 nM; in assay [3] (read-out: JAK1 Ki), 0.51 nM.
`N#CCC1(n2cc(C(N)=O)c(NC(=O)C3CC3)n2)CCN(Cc2ccc(-c3ccccc3)nc2F)CC1F` (stereo not drawn) [Example 201, 1-[4-(cyanomethyl)-3-fluoro-1-[(2-fluoro-6-phenyl-3-pyridyl)methyl]-4-piperidyl]-3-(cyclopropanecarbonylamino) pyrazole-4-carboxamide]: in assay [1] (setting [4]), the IC50 came to 23 nM. Besides, the values for the Ki in assay [2] and in assay [3] (read-out: JAK1 Ki) were 0.23 nM and 0.24 nM, respectively.
For the compound `N#CCC1(n2cc(C(N)=O)c(NC(=O)C3CC3)n2)CCN(Cc2cnc(-c3ccccc3)cc2F)CC1` [Example 202, 1-[4-(cyanomethyl)-1-[(4-fluoro-6-phenyl-3-pyridyl)methyl]-4-piperidyl]-3-(cyclopropanecarbonylamino) pyrazole-4-carboxamide], the IC50 in assay [1] (setting [4]) is 74 nM. Moreover, the values for the Ki in assay [2] and in assay [3] (read-out: JAK1 Ki) were 0.74 nM and 0.55 nM, respectively.
For `COC(=O)Nc1nn(C2(CC#N)CCN(Cc3ccc(-c4ccccc4)nc3F)CC2F)cc1C(N)=O` (stereo not drawn) [Example 203, methyl N-[4-carbamoyl-1-[4-(cyanomethyl)-3-fluoro-1-[(2-fluoro-6-phenyl-3-pyridyl)methyl]-4-piperidyl]pyrazol-3-yl]carbamate], in assay [1] (setting [4]), the IC50 is 15 nM. Also, the Ki in assay [2] amounted to 0.22 nM; in assay [3] (read-out: JAK1 Ki), 0.25 nM.
The like results for `N#CCC1(n2cc(C(N)=O)c(NC(=O)C3CC3)n2)CCN(Cc2ccc(-c3ccccc3)cc2O)CC1` [Example 204, 1-[4-(cyanomethyl)-1-[(2-hydroxy-4-phenyl-phenyl)methyl]-4-piperidyl]-3-(cyclopropanecarbonylamino) pyrazole-4-carboxamide] were, in that order, 50 nM, 1.8 nM and 1 nM.
